Laboratory results published in ChEMBL document CHEMBL1201862, “PubChem BioAssay data set” (2004).
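Tested at 5 concentrations; 48 h exposure; 96-well plates; endpoints linearly interpolated, else capped at highest concentration. At the GI50, growth is halved.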 Calls of active or inactive are those of the source. Cut-off read from the data, not from the text of the source: active = GI50 up to about 1.1 µM and inactive = higher.

Legend:
Test in all cases: NCI-60 cell line screen, 48 h
UACC-62 = system: UACC-62
U-251 = system: U-251
SF-539 = system: SF-539
HOP-62 = system: HOP-62
HOP-92 = system: HOP-92
SK-MEL-28 = system: SK-MEL-28
K562 = system: K562
OVCAR-4 = system: OVCAR-4
NCI-H460 = system: NCI-H460
NCI/ADR-RES = system: NCI/ADR-RES
IGROV-1 = system: IGROV-1
UO-31 = system: UO-31
Hs-578T = system: Hs-578T
NCI-H23 = system: NCI-H23
ACHN = system: ACHN
T47D = system: T47D
SK-MEL-5 = system: SK-MEL-5
SR = system: SR
MDA-MB-231 = system: MDA-MB-231
HL-60 = system: HL-60

SMILES | GI50 (UACC-62) | GI50 (U-251) | GI50 (SF-539) | GI50 (HOP-62) | GI50 (HOP-92) | GI50 (SK-MEL-28) | GI50 (K562) | GI50 (OVCAR-4) | GI50 (NCI-H460) | GI50 (NCI/ADR-RES) | GI50 (IGROV-1) | GI50 (UO-31) | GI50 (Hs-578T) | GI50 (NCI-H23) | GI50 (ACHN) | GI50 (T47D) | GI50 (SK-MEL-5) | GI50 (SR) | GI50 (MDA-MB-231) | GI50 (HL-60)
O=c1[nH]c(=O)n(C2C(CO)OC(CO)C2O)cc1F (centres undefined) | > 100 µM (inactive) | > 100 µM (inactive) | > 100 µM (inactive) | > 100 µM (inactive) | > 100 µM (inactive) | > 100 µM (inactive) | > 100 µM (inactive) | > 100 µM (inactive) | > 100 µM (inactive) | > 100 µM (inactive) | > 100 µM (inactive) | > 100 µM (inactive) | > 100 µM (inactive) | > 100 µM (inactive) | > 100 µM (inactive) | > 100 µM (inactive) | > 100 µM (inactive) | > 100 µM (inactive) | > 100 µM (inactive) | –
CCCCCCCCCCOC1C(C(O)CNCCCN(C)C)OC2OC3(CCCCC3)OC21 (centres undefined) | 2.79 µM (inactive) | 1.84 µM (inactive) | – | 1.75 µM (inactive) | 1.07 µM (active) | 1.66 µM (inactive) | 1.63 µM (inactive) | 2.04 µM (inactive) | 1.97 µM (inactive) | 3.31 µM (inactive) | 1.93 µM (inactive) | 2.37 µM (inactive) | 3.17 µM (inactive) | 1.48 µM (inactive) | 2.81 µM (inactive) | 2.75 µM (inactive) | 1.89 µM (inactive) | 0.329 µM (active) | 1.8 µM (inactive) | 1.69 µM (inactive)
COc1ccc2o/c(=N\c3ccc(F)cc3)c(C(N)=O)cc2c1 | 35.3 µM (inactive) | 34.7 µM (inactive) | – | 29.1 µM (inactive) | 27.4 µM (inactive) | > 100 µM (inactive) | > 100 µM (inactive) | 27.9 µM (inactive) | > 100 µM (inactive) | 30.2 µM (inactive) | 79.3 µM (inactive) | 46.8 µM (inactive) | 62.1 µM (inactive) | 29.3 µM (inactive) | 30.5 µM (inactive) | 19.4 µM (inactive) | > 100 µM (inactive) | > 100 µM (inactive) | 16.3 µM (inactive) | > 100 µM (inactive)
NC(=O)NC(=O)Nc1ccc(Br)cc1 | 2.92 µM (inactive) | 11.7 µM (inactive) | > 17.3 µM (inactive) | > 15.8 µM (inactive) | > 100 µM (inactive) | 6.14 µM (inactive) | 3.3 µM (inactive) | > 24.3 µM (inactive) | > 8.61 µM (inactive) | > 30.8 µM (inactive) | 16.7 µM (inactive) | 22.8 µM (inactive) | > 100 µM (inactive) | > 14.5 µM (inactive) | > 9.62 µM (inactive) | 6.03 µM (inactive) | 7.67 µM (inactive) | – | > 16.6 µM (inactive) | 4.34 µM (inactive)
Nc1ncc2c(n1)-c1ccccc1OC2NC1CC1 (centres undefined) | > 100 µM (inactive) | > 100 µM (inactive) | > 100 µM (inactive) | – | > 100 µM (inactive) | – | – | > 100 µM (inactive) | > 100 µM (inactive) | > 100 µM (inactive) | > 100 µM (inactive) | > 100 µM (inactive) | > 100 µM (inactive) | > 100 µM (inactive) | > 100 µM (inactive) | > 100 µM (inactive) | > 100 µM (inactive) | > 100 µM (inactive) | > 100 µM (inactive) | > 100 µM (inactive)
CC1(N2CCOCC2)CC2C(=[N+]1[O-])CCC/C2=N/O (centres undefined) | > 100 µM (inactive) | > 100 µM (inactive) | > 100 µM (inactive) | > 100 µM (inactive) | – | > 100 µM (inactive) | > 100 µM (inactive) | > 100 µM (inactive) | > 100 µM (inactive) | > 100 µM (inactive) | > 100 µM (inactive) | > 100 µM (inactive) | > 100 µM (inactive) | > 100 µM (inactive) | > 100 µM (inactive) | > 100 µM (inactive) | > 100 µM (inactive) | > 100 µM (inactive) | > 100 µM (inactive) | –
CC1=CCC[C@]2(C)C1=CC(=O)O[C@H]2c1ccoc1 | > 100 µM (inactive) | > 100 µM (inactive) | – | > 100 µM (inactive) | > 100 µM (inactive) | > 100 µM (inactive) | > 100 µM (inactive) | > 100 µM (inactive) | > 100 µM (inactive) | > 100 µM (inactive) | > 100 µM (inactive) | 44.6 µM (inactive) | > 100 µM (inactive) | > 100 µM (inactive) | > 100 µM (inactive) | > 100 µM (inactive) | > 100 µM (inactive) | > 100 µM (inactive) | > 100 µM (inactive) | 49.8 µM (inactive)
CCOP(=O)(COCCn1ncc(=O)[nH]c1=O)OCC | – | > 100 µM (inactive) | > 100 µM (inactive) | > 100 µM (inactive) | > 100 µM (inactive) | > 100 µM (inactive) | – | – | > 100 µM (inactive) | > 100 µM (inactive) | > 100 µM (inactive) | > 100 µM (inactive) | > 100 µM (inactive) | > 100 µM (inactive) | > 100 µM (inactive) | > 100 µM (inactive) | > 100 µM (inactive) | > 100 µM (inactive) | > 100 µM (inactive) | > 100 µM (inactive)
CCOC(=O)C(C(N)=O)C1=Nc2cc([N+](=O)[O-])ccc2N/C1=C\C(=O)c1ccc(C)cc1 (centres undefined) | 30.3 µM (inactive) | 15.5 µM (inactive) | 17.1 µM (inactive) | 16.8 µM (inactive) | 18.1 µM (inactive) | 29.3 µM (inactive) | 2.46 µM (inactive) | 43.6 µM (inactive) | 22.2 µM (inactive) | 22.1 µM (inactive) | 17.4 µM (inactive) | 17.6 µM (inactive) | 21.6 µM (inactive) | 16.9 µM (inactive) | 21.3 µM (inactive) | 60.1 µM (inactive) | 33.9 µM (inactive) | 7.55 µM (inactive) | 18.4 µM (inactive) | –
COC(=O)/C(=N\Nc1nnc(C)n1N)C(C#N)c1ccccc1 (centres undefined) | > 100 µM (inactive) | > 77.4 µM (inactive) | 64.1 µM (inactive) | > 100 µM (inactive) | > 100 µM (inactive) | > 100 µM (inactive) | > 100 µM (inactive) | > 40 µM (inactive) | > 100 µM (inactive) | > 100 µM (inactive) | > 54.8 µM (inactive) | > 91.4 µM (inactive) | > 100 µM (inactive) | 24.1 µM (inactive) | 27.8 µM (inactive) | > 100 µM (inactive) | 92.3 µM (inactive) | – | > 100 µM (inactive) | > 100 µM (inactive)
CSc1c(C#N)c2n(c3ccccc3[n+]2C)c2ncccc12 | 17.6 µM (inactive) | 24 µM (inactive) | – | 23.4 µM (inactive) | – | 21.4 µM (inactive) | 37.9 µM (inactive) | 30.8 µM (inactive) | 15.7 µM (inactive) | 28.4 µM (inactive) | 24.7 µM (inactive) | 16.1 µM (inactive) | 36.7 µM (inactive) | 21.5 µM (inactive) | 18.7 µM (inactive) | 25.8 µM (inactive) | 12.9 µM (inactive) | 23.5 µM (inactive) | 18.5 µM (inactive) | –
CN(C)C1=Nc2ccccc2C(=S)N2CSCC12 (centres undefined) | 75.5 µM (inactive) | 35.6 µM (inactive) | – | > 100 µM (inactive) | – | 81.1 µM (inactive) | 12.8 µM (inactive) | > 100 µM (inactive) | 37.8 µM (inactive) | 73.8 µM (inactive) | 19.1 µM (inactive) | > 100 µM (inactive) | 77.3 µM (inactive) | – | > 100 µM (inactive) | 89.5 µM (inactive) | > 100 µM (inactive) | 17.9 µM (inactive) | 44.3 µM (inactive) | –
CC(C)CC1NC(=O)C(C(C)C)NC(=O)CC(C)COC(=O)C(CC(C)C)N(C)C(=O)C(C(C)C)NC(=O)C(C(C)C)OC1=O (centres undefined) | 16 µM (inactive) | 31.2 µM (inactive) | 8.28 µM (inactive) | 15.2 µM (inactive) | 26.5 µM (inactive) | > 50 µM (inactive) | > 50 µM (inactive) | – | > 50 µM (inactive) | > 50 µM (inactive) | > 50 µM (inactive) | > 50 µM (inactive) | 26.7 µM (inactive) | > 50 µM (inactive) | > 50 µM (inactive) | > 50 µM (inactive) | > 50 µM (inactive) | > 50 µM (inactive) | 19.7 µM (inactive) | –
CN1C(=O)CC2CCCN2C1=O (centres undefined) | > 100 µM (inactive) | > 100 µM (inactive) | > 100 µM (inactive) | > 100 µM (inactive) | 86.9 µM (inactive) | 5.09 µM (inactive) | > 100 µM (inactive) | > 100 µM (inactive) | > 100 µM (inactive) | > 100 µM (inactive) | > 100 µM (inactive) | > 100 µM (inactive) | > 100 µM (inactive) | > 100 µM (inactive) | > 100 µM (inactive) | > 100 µM (inactive) | > 100 µM (inactive) | > 100 µM (inactive) | > 100 µM (inactive) | –
CCOC(=O)c1ccc(C(=O)/C(C(=O)OC(C)(C)C)=C2\CCCN2C)n1C | 44.2 µM (inactive) | > 100 µM (inactive) | > 100 µM (inactive) | 95.3 µM (inactive) | – | > 100 µM (inactive) | 42.1 µM (inactive) | 46.6 µM (inactive) | 94.6 µM (inactive) | 34.6 µM (inactive) | > 100 µM (inactive) | 90.4 µM (inactive) | > 100 µM (inactive) | 73.3 µM (inactive) | 73.5 µM (inactive) | 29.2 µM (inactive) | 21.3 µM (inactive) | 31.6 µM (inactive) | 80 µM (inactive) | 27.4 µM (inactive)
